Results from publication PMC8377175, “Antidiabetic effect of bio-enhanced preparation of turmeric in streptozotocin-nicotinamide induced type 2 diabetic Wistar rats” (Journal of Ayurveda and Integrative Medicine, 2021).
Marks after values point to notes of the source that are not given here.

Experiments:
[1] = test system: streptozotocin-nicotinamide induced type 2 diabetic Wistar rats; test: Fasting blood glucose and oral glucose tolerance test in STZ-NA diabetic rats; assay type: in vivo; conditions: mean ± SD; for OG1 (OGTT 60 min), Day 29 Readings (after treatment) / OG2 (OGTT 120 min), Day 29 Readings (after treatment) / OG1 (OGTT 60 min), Day 1 Readings (baseline) / OG2 (OGTT 120 min), Day 1 Readings (baseline): glucose 2 g/kg; for OG1 (OGTT 60 min), Day 29 Readings (after treatment) / OG2 (OGTT 120 min), Day 29 Readings (after treatment) / FBG, Day 29 Readings (after treatment) / FBG, Day 1 Readings (baseline) / OG1 (OGTT 60 min), Day 1 Readings (baseline) / OG2 (OGTT 120 min), Day 1 Readings (baseline): n = 6; for FBG, Day 1 Readings (baseline): Day 1 baseline (4th day after induction); for OG1 (OGTT 60 min), Day 1 Readings (baseline) / OG2 (OGTT 120 min), Day 1 Readings (baseline): Day 1 baseline; for Day 30 FBG: 30 days
Method: This study was done at the Department of Pharmacology, Kasturba Medical College, […] Academy of Higher Education, […]. The diabetic model that we have used in this study was STZ-NA model. DM was induced in male Wistar rats by giving NA and STZ injections, intraperitoneally. […] Citrate buffer (0.1 M), which has been used as solvent for mixing STZ, was made by dissolving solution of trisodium citrate (294.10 mg in 100 mL of distilled water) with citric acid solution (210.10 mg in 100 mL of distilled water) to attain pH 4.5. Ice was kept around the glass beaker containing Citrate buffer to maintain citrate buffer at lower temperatures. Normal control rats were administered with Citrate buffer alone intraperitoneally. […] Wistar rats were divided into seven groups, each group had six rats. Treatment for all the groups was started on the 4th day after diabetes induction procedure. The same was considered as Day 1 for treatment and continued for 30 days. The animals were treated for 30 days. The treatment schedule of various groups were as follows: Normal control (NC) (1 mL of 1% Tween 80, per oral), Diabetic control (DC) (1 mL of 1% Tween 80, per oral), two Standard control groups were treated with GLIB (5 mg/kg, per oral) and MET (500 mg/kg, per oral), two test groups were treated with bio-BTE (30 mg/kg, per oral and 60 mg/kg, per oral) and one test group was treated with RTE (30 mg/kg, per oral). The vehicle used for the study in all the groups were 1% Tween 80. Oral feeding of drugs was done using steel oral gavage tube (16 G, 7.6 cm). During the treatment period, rats also received standard pelleted chow (VRK Nutritional solutions) and water ad libitum during treatment. […] FBG, OG1 and OG2 values were estimated from blood drops that were obtained from rat tail tip using Accu-Check Glucometer. […] These serum samples were stored at -80 °C before insulin levels were assayed using DRG Rat insulin ELISA Kit.

Body weight measurement = assay type: in vivo, Wistar rats; conditions: for Body weight, Day 1: Day 1 of treatment (baseline), in g (unit assumed); for Body weight, Day 1 / Body weight, Day 30: mean ± SD; for Percentage change in body weight on Day 30 when compared to baseline, Gain (+)/Loss (−) / Body weight, Day 30: 30 days
Method: (§1) Wistar rats were divided into seven groups, each group had six rats. Treatment for all the groups was started on the 4th day after diabetes induction procedure. The same was considered as Day 1 for treatment and continued for 30 days. The animals were treated for 30 days. The treatment schedule of various groups were as follows: Normal control (NC) (1 mL of 1% Tween 80, per oral), Diabetic control (DC) (1 mL of 1% Tween 80, per oral), two Standard control groups were treated with GLIB (5 mg/kg, per oral) and MET (500 mg/kg, per oral), two test groups were treated with bio-BTE (30 mg/kg, per oral and 60 mg/kg, per oral) and one test group was treated with RTE (30 mg/kg, per oral). The vehicle used for the study in all the groups were 1% Tween 80. Oral feeding of drugs was done using steel oral gavage tube (16 G, 7.6 cm). During the treatment period, rats also received standard pelleted chow (VRK Nutritional solutions) and water ad libitum during treatment.
Body weight of the rats was measured before induction (on the day of induction), on Day 1 of treatment and also on Day 30 of treatment. Percentage change in body weight was calculated using the formula (BodyweightonDay30oftreatment−BodyweightonDay1oftreatment)/(BodyweightonDay1oftreatment)×100

[2] = test system: streptozotocin-nicotinamide induced type 2 diabetic Wistar rats; test: Fasting serum insulin (DRG Rat insulin ELISA Kit) in STZ-NA diabetic rats; assay type: in vivo; conditions: 30 days, mean ± SD
Method: as §1, with “During the treatment period, rats also received standard pelleted chow (VRK Nutritional solutions) and water ad libitum during treatment.” left out
FBG was estimated in all rats before administration of STZ and NA and had FBG level less than 126 mg/dl. […] FBG values were measured at 0 min (before glucose administration) and OGTT readings (OG1 and OG2) were measured at 60 and 120 min after administration of glucose solution. […] On Day 30 of treatment, FBG was measured and after anaesthetizing rats with ether, blood was collected from overnight fasted rats using cardiac puncture into red-coloured procoagulant vacutainers and centrifuged at 3000 rpm for 7 min to obtain serum. […]

[3] = test system: streptozotocin-nicotinamide induced type 2 diabetic Wistar rats; test: HOMA2 calculator: insulin resistance, insulin sensitivity, beta-cell function, and their correlation with serum insulin; assay type: in vivo; conditions: 30 days, mean ± SD
Method: FBG, OG1 and OG2 values were estimated from blood drops that were obtained from rat tail tip using Accu-Check Glucometer. […] These serum samples were stored at −80 °C before insulin levels were assayed using DRG Rat insulin ELISA Kit. […] One-way ANOVA followed by post hoc analysis with Tukey test was conducted to evaluate statistically significant differences in the study variables between treatment groups. Pearson two-tailed correlation analysis was used to evaluate the correlation between serum insulin and IR; serum insulin and %B; and serum insulin & %S. SPSS version 21.0 was used to conduct statistical analysis in this study.

SMILES: COc1ccc(Cl)cc1C(=O)NCCc1ccc(S(=O)(=O)NC(=O)NC2CCCCC2)cc1 [GLIB, Glibenclamide]
- OG1 (OGTT 60 min), Day 29 Readings (after treatment) ([1]; GLIB 5 mg/kg per oral daily): 154.17 ± 76.55^b mg/dL
- OG2 (OGTT 120 min), Day 29 Readings (after treatment) ([1]; GLIB 5 mg/kg per oral daily): 117.50 ± 16.21^b mg/dL
- FBG, Day 29 Readings (after treatment) ([1]; GLIB 5 mg/kg per oral daily): 95.17 ± 27.97^b mg/dL
- FBG, Day 1 Readings (baseline) ([1]; GLIB 5 mg/kg per oral group): 130.5 ± 5.43^a mg/dL
- OG1 (OGTT 60 min), Day 1 Readings (baseline) ([1]; GLIB 5 mg/kg per oral group): 420.67 ± 21.71^a mg/dL
- OG2 (OGTT 120 min), Day 1 Readings (baseline) ([1]; GLIB 5 mg/kg per oral group): 358.50 ± 34.65^a mg/dL
- Day 30 FBG ([1]; GLIB 5 mg/kg per oral): 96.67 ± 26.49^b mg/dL
- Body weight, Day 1 (Body weight measurement; GLIB 5 mg/kg per oral group): 179.67 ± 3.08
- Percentage change in body weight on Day 30 when compared to baseline, Gain (+)/Loss (−) (Body weight measurement; GLIB 5 mg/kg per oral): +23%
- Body weight, Day 30 (Body weight measurement; GLIB 5 mg/kg per oral): 221 ± 8.07^abcd
- Day 30 Serum Insulin ([2]; GLIB 5 mg/kg per oral): 145.68 ± 41.06^abd pmol/L
- Day 30 Beta cell function (%B) ([3]; GLIB 5 mg/kg per oral): 183.13 ± 68.69^b %
- Day 30 Insulin Resistance (IR) ([3]; GLIB 5 mg/kg per oral): 2.70 ± 0.84^abd
- Day 30 Insulin Sensitivity (%S) ([3]; GLIB 5 mg/kg per oral): 41.08 ± 16.03%

SMILES: CN(C)C(=N)N=C(N)N [MET, Metformin]
- OG1 (OGTT 60 min), Day 29 Readings (after treatment) ([1]; MET 500 mg/kg per oral daily): 329.33 ± 12.91^abd mg/dL
- OG2 (OGTT 120 min), Day 29 Readings (after treatment) ([1]; MET 500 mg/kg per oral daily): 203.67 ± 58.96^b mg/dL
- FBG, Day 29 Readings (after treatment) ([1]; MET 500 mg/kg per oral daily): 144.83 ± 53.86^b mg/dL
- FBG, Day 1 Readings (baseline) ([1]; MET 500 mg/kg per oral group): 128.33 ± 5.32^a mg/dL
- OG1 (OGTT 60 min), Day 1 Readings (baseline) ([1]; MET 500 mg/kg per oral group): 421.67 ± 39.52^a mg/dL
- OG2 (OGTT 120 min), Day 1 Readings (baseline) ([1]; MET 500 mg/kg per oral group): 301.50 ± 64.05^a mg/dL
- Day 30 FBG ([1]; MET 500 mg/kg per oral): 141.00 ± 52.33^abcd mg/dL
- Body weight, Day 1 (Body weight measurement; MET 500 mg/kg per oral group): 183.67 ± 7.82
- Percentage change in body weight on Day 30 when compared to baseline, Gain (+)/Loss (−) (Body weight measurement; MET 500 mg/kg per oral): −12.07%
- Body weight, Day 30 (Body weight measurement; MET 500 mg/kg per oral): 161.5 ± 7.74^acd
- Day 30 Serum Insulin ([2]; MET 500 mg/kg per oral): 35.63 ± 16.81^c pmol/L
- Day 30 Beta cell function (%B) ([3]; MET 500 mg/kg per oral): 42.03 ± 37.09^acd %
- Day 30 Insulin Resistance (IR) ([3]; MET 500 mg/kg per oral): 0.73 ± 0.31^bc
- Day 30 Insulin Sensitivity (%S) ([3]; MET 500 mg/kg per oral): 160.70 ± 68.64^abcd %
